From paper PMC5086919, “Antileukemic Scalarane Sesterterpenoids and Meroditerpenoid from Carteriospongia (Phyllospongia) sp., Induce Apoptosis via Dual Inhibitory Effects on Topoisomerase II and Hsp90” (Scientific Reports, 2016)
≈ marks a conversion by molar mass, not a printed value. Read-outs that look alike come from different tables or passages of the source.

Tests used:
[1] = test system: Molt 4 cells; assay: ROS generation, carboxy-H2DCFDA flow cytometry; assay type: cell-based, human; conditions: 0.0625 μg/mL
Method: Oxidative stress is manifested by ROS overexpression and cannot be balanced by the available antioxidant machinery. Compound 1 can damage the integrity of mitochondria, which are the major production sites of the superoxide anion, […]. The induction of the intracellular formation of ROS by 1 was determined with a carboxyl derivative of fluorescein, carboxy-H2DCFDA dye using flow cytometric analysis. […] In addition, ROS generation could induce ER stress leading to mitochondria-related apoptosis. To further investigate if ER stress is involved in the apoptotic effect induced by 1, Western blot analysis was used to determine the expression of ER stress-related proteins. […] Furthermore, the effect of 1 on the release of intracellular Ca^2+, was evaluated using fluorescent calcium indicator, Fluo 3. […] The induction of the typical executor caspases-3 and −7, as well as γH2AX, was also observed using Western blot analysis (Fig. 7D). To confirm the induction of DNA damage by 1 in Molt 4 cells, a comet assay under neutral electrophoresis condition was utilized. The effect of 1 (0.0625 μg/mL) at different time intervals (0, 3, 6 and 9 h) on the level of nuclear DNA integrity was determined. […] The DNA migration was represented by the induction of DSBs in a time-dependent increase, as indicated by the abnormal tails’ sizes in the comet assay.
These assays were performed as described previously. […] In brief, the treated cells were labeled with a specific fluorescent dye for 30 min. After labeling, cells were washed with PBS and resuspended in PBS at a concentration of 1 × 10^6 cells/mL before analysis via flow cytometry.

[2] = test system: DLD-1 cells; assay: MTT antiproliferative assay, colon cancer DLD-1 cells; conditions: Homo sapiens, DLD-1, 72 h, read-out: IC50, cytotoxicity, Colon DLD-1
Description: Several cancer cell lines including leukemia K562, Molt 4, and HL 60 cells, prostate cancer LNCaP cells, colon cancer DLD-1 cells and breast cancer T-47D cells were used to evaluate the antiproliferative activity.
The cell lines were obtained from the American Type Culture Collection (ATCC, Manassas, VA, USA). […] Dimethyl sulfoxide (DMSO), 3-(4,5-dimethylthiazol-2-yl)-2,5-diphenyl-tetrazolium bromide (MTT) and all other chemicals were purchased from Sigma-Aldrich (St. Louis, MO, USA).

[3] = test system: Molt 4 cells; assay: MTT antiproliferative assay, leukemia Molt 4 cells; assay type: cell-based; conditions: Homo sapiens
[4] = test system: γH2AX in Molt 4 cells; assay: Western blot of γH2AX (DNA damage biomarker); assay type: cell-based, human; conditions: 0, 0.0625, 0.125 and 0.25 μg/mL, 24 h
Description: The ability of Topo II to generate DNA damage in the presence of Topo II-targeting agents led to the hypothesis that an important determinant of drug sensitivity was related to the overall level of Topo II[17]. […] Such findings encouraged us to evaluate the effect of the isolates on Topo II activity. In order to confirm whether the DNA damage-induced by the isolated sesterterpenoids involved the inhibition of Topo II activity, a cell-free DNA cleavage assay using an enzyme-mediated negatively supercoiled pHOT1 plasmid DNA was applied. […] These marine terpenoids suppressed Topo II activity, resulting in the inhibition of supercoiled DNA relaxation in a dose-dependent manner (Fig. 5A). […] To determine whether the apoptotic mechanism of these compounds affects γH2AX (as a biomarker of DNA damage) induction, Western blot analysis was employed to examine the activation of γH2AX.
Cell lysates were prepared by treating the cells for 30 min in RIPA lysis buffer, 1% Nonidet P-40, 0.5% sodium deoxycholate, 0.1% sodium dodecyl sulphate (SDS), 1 mM sodium orthovanadate, 100 μg/mL phenylmethylsulfonyl fluoride and 30 μg/mL aprotinin) (all chemicals were from Sigma)[38]. The lysates were centrifuged at 20,000 × g for 30 min, and the protein concentration in the supernatant was determined using a BCA protein assay kit (Pierce). Equal amounts of proteins were respectively separated by 7.5%, 10% or 12% of SDS-polyacrylamide gel electrophoresis and then were electrotransferred to a PVDF membrane. The membrane was blocked with a solution containing 5% non-fat dry milk TBST buffer (20 mM Tris-HCl, pH 7.4, 150 mM NaCl and 0.1% Tween 20) for 1 h and washed with TBST buffer. The protein expressions were monitored by immunoblotting using specific antibodies. These proteins were detected by an enhanced chemiluminescence kit (Pierce).

[5] = test system: PARP and caspases in Molt 4 cells; assay: Western blot of apoptosis-related proteins; assay type: cell-based, human; conditions: 0.0625 μg/mL, time-dependent
Method: Oxidative stress is manifested by ROS overexpression and cannot be balanced by the available antioxidant machinery. Compound 1 can damage the integrity of mitochondria, which are the major production sites of the superoxide anion, […]. The induction of the intracellular formation of ROS by 1 was determined with a carboxyl derivative of fluorescein, carboxy-H2DCFDA dye using flow cytometric analysis. […] In addition, ROS generation could induce ER stress leading to mitochondria-related apoptosis. To further investigate if ER stress is involved in the apoptotic effect induced by 1, Western blot analysis was used to determine the expression of ER stress-related proteins. […] Furthermore, the effect of 1 on the release of intracellular Ca^2+, was evaluated using fluorescent calcium indicator, Fluo 3. […] The effect of 1 (0.0625 μg/mL) at different time intervals (0, 3, 6 and 9 h) on the level of nuclear DNA integrity was determined. […]
Cell lysates were prepared by treating the cells for 30 min in RIPA lysis buffer, 1% Nonidet P-40, 0.5% sodium deoxycholate, 0.1% sodium dodecyl sulphate (SDS), 1 mM sodium orthovanadate, 100 μg/mL phenylmethylsulfonyl fluoride and 30 μg/mL aprotinin) (all chemicals were from Sigma)[38]. The lysates were centrifuged at 20,000 × g for 30 min, and the protein concentration in the supernatant was determined using a BCA protein assay kit (Pierce). […]

Structure (SMILES): CC[C@@]1(C)CCC[C@]2(C)[C@H]3C[C@@H](OC(=O)C[C@@H](C)O)[C@]4(C)[C@@H](C=O)C(C(C)=O)=CC[C@H]4[C@]3(C)CC[C@@H]12 (relative stereo) [Compound 1, 12β-(3′β-hydroxybutanoyloxy)-20,24-dimethyl-24-oxo-scalara-16-en-25-al]
- increase in ROS levels compared with MFI of control ([1]; 0.5 h): 2.09 fold
- increase in ROS levels compared with MFI of control ([1]; 1 h): 1.51 fold
- increase in ROS levels compared with MFI of control ([1]; 2 h): 1.06 fold
- increase in ROS levels compared with MFI of control ([1]; 3 h): 1.01 fold
- IC50 [2]: 2.33 µg/mL (≈ 4.65 µM)
- IC50 ([3]; 72 h, read-out: IC50, cytotoxicity, Leukemia Molt 4): 0.01 µg/mL
- IC50 ([3]; molar value in brackets, read-out: antiproliferative activity (IC50), Molt 4): 19.1 nM
- expression of γH2AX [4]: significantly enhanced the expression of γH2AX in a dose-dependent manner
- PARP and caspase cleavages [5]: significant increase of PARP, caspases-8 and −9 cleavages
